Results on three compounds are retold here after patent publication US20250188088A1, “COMPOUND AND USE THEREOF” (ONQUALITY PHARMACEUTICALS CHINA LTD., priority 2022, published 2025).

The nature of data set [1]: Plasma stability, mini pig plasma. The format is in vitro ADME, Mini Pigs. The following applies: 37° C. How it is done: (§1) In addition, the plasma stability of these compounds was determined. Briefly, the determination method comprises the following steps: • 1) Thaw the frozen mixed plasma in a 37° C. water bath before testing, and then centrifuge at 4000 rpm for 5 min to remove blood clots; • 2) Add 98 μL blank plasma into each well of the 96-well reaction plate; • 3) In addition to the blank samples, add 2 μL of 100 μM working solution of test compound into each well; • 3) Incubate the reaction plate at 37° C. and start timing. Incubation times were 0, 10, 30, 60 and 120 minutes, respectively, with two replicate wells at each time point; • 4) Terminate the incubation at the corresponding time point, and add 400 μL of acetonitrile solution containing 200 ng/mL tolbutamide and 200 ng/mL labetalol to precipitate proteins; • 5) Shake each plate for 20 minutes, then centrifuge at 4000 rpm for 20 minutes, transfer 50 μL of supernatant to another 96-well plate, and dilute each sample with 100 μL of pure water; • 6) Analyze the sample by LC-MS/MS.

The nature of data set [2]: Plasma stability, human plasma. The format is in vitro ADME, Humans. The following applies: 37° C. How it is done: as §1
The experiment results are as follows, and it can be seen from the test results that the selected compounds are easily metabolized to the target compound in human plasma.

For data set [3], the system named is rash caused by monoclonal EGFR inhibitors. As to the kind of experiment: Prevention of rash caused by monoclonal EGFR inhibitors, topical ointment, rat model. The format is in vivo, SD rats. The procedure: An Experiment to Verify the Prevention of Rash Caused by Monoclonal EGFR Inhibitors with Topical Administration of Compounds of the Present Application on a Rat Animal Model After the SD rats were fed and adapted for one week (about 200 g), the rats were divided into 10 rats per group. The hair on the back of rats was gently removed with an electric razor one day before the experiment, and then an administration test was carried out. The experiments were divided into the administration group with the compound of the present application and the control group. The EGFR monoclonal antibody solution diluted with normal saline was injected via the tail vein twice a week, and the injection rate and time are shown in Table 2. After injection, the administration group applied the compound ointment of the present application on the backs (about 3 cm*3 cm) of rats every day, and the control group applied blank matrix ointment (about 0.5 g) to the backs (about 3 cm*3 cm) of rats every day. After drug application, the rats were fixed with a fixed cyclinder for 4 h; after that, the rats were released and the residual drug at the application site was wiped off with clear water. Monoclonal antibody EGFR inhibitors were injected via the tail vein twice a week, and the compound of the present application and blank ointment were applied once a day until obvious rashes appeared in the control group. […] Table 2 lists the animal experiment combinations of various monoclonal antibody EGFR inhibitors and the compound ointment of the present application, as well as the corresponding experiment results (wherein, the value in the control rate column=the number of rats whose rash is milder in the administration group than that in the control group/the total number of rats in the administration group×100%).

The test system of data set [4] is rash caused by small molecule EGFR inhibitors. As to the kind of experiment: Treatment of rash caused by small molecule EGFR inhibitors, topical ointment, rat model. It is filed as in vivo, SD rats. The procedure: An Experiment to Verify the Treatment of Rash Caused by Small Molecule EGFR Inhibitors with Topical Administration of Compounds of the Present Application on a Rat Animal Model After the SD rats were fed and adapted for one week (about 200 g), the rats were divided into 10 rats per group. The hair on the back of rats was gently removed with an electric razor one day before the experiment, and then an intragastric administration test was carried out. EGFR inhibitors were dissolved in a sterile aqueous solution, and diluted with PBS buffer; the amount of each gavage was not more than 2 mL, and the dosage was shown in Table 3. […] The experiments were divided into the administration group with the compound of the present application and the control group. During the treatment experiment, EGFR inhibitors were intragastrically administered continuously every day. After the gavage, the administration group applied the compound ointment of the present application on the back (about 3 cm*3 cm) of rats, and the control group applied blank matrix ointment on the back (about 3 cm*3 cm); after application, the rats were fixed with a fixed cyclinder for about 4 hours, and then the rats were released, with the residual drug at the application site wiped off with clean water, and put back into the cage. The frequency of intragastric administration of EGFR inhibitors is shown in Table 3, but the compounds of the present application and blank ointment are applied only once a day. […] Table 3 lists the animal experiment combinations of various small molecule EGFR inhibitors and the compound ointment of the present application, as well as the corresponding experiment results (wherein, the value in the control rate column=the number of rats whose rash is milder in the administration group than that in the control group/the total number of rats in the administration group×100%).

Data set [5] relates to rash caused by monoclonal EGFR inhibitors. Nature of the data set: Treatment of rash caused by monoclonal EGFR inhibitors, topical ointment, rat model. The format is in vivo. The following applies: SD rats. The procedure: An Experiment to Verify the Treatment of Rash Caused by Monoclonal EGFR Inhibitors with Topical Administration of Compounds of the Present Application on a Rat Animal Model After the SD rats were fed and adapted for one week (about 200 g), the rats were divided into 10 rats per group. The hair on the back of rats was gently removed with an electric razor one day before the experiment, and then an administration test was carried out. The EGFR monoclonal antibody solution diluted with normal saline was injected via tail vein twice a week, and the injection rate and time were shown in Table 4; the treatment experiment was started at the time point when rats developed a rash after continuous administration for 1-2 weeks. The experiments were divided into the administration group with the compound of the present application and the control group. During the treatment experiment, monoclonal antibody EGFR inhibitors were injected twice a week. the administration group applied the compound ointment of the present application on the back (about 3 cm*3 cm) of rats every day, and the control group applied blank matrix ointment on the back (about 3 cm*3 cm); after application, the rats were fixed with a fixed cyclinder for about 4 hours, and then the rats were released, with the residual drug at the application site wiped off with clean water, and put back into the cage. […] Table 4 lists the animal experiment combinations of monoclonal antibody EGFR inhibitors and the compound ointment of the present application, as well as the corresponding experiment results (wherein, the value in the control rate column=the number of rats whose rash is milder in the administration group than that in the control group/the total number of rats in the administration group×100%).

Where [6] appears, read: Cetuximab 100 mg/kg twice a week via tail vein, ointment 5.0 wt% once a day, 10 days.
The mark [7] stands for this setting: Panitumumab 10 mg/kg twice a week via tail vein, ointment 1.0 wt% once a day, 14 days.
Where [8] appears, read: Cetuximab 100 mg/kg twice a week via tail vein, ointment 0.2 wt% once a day, 10 days.
The mark [9] stands for this setting: Panitumumab 10 mg/kg twice a week via tail vein, ointment 5.0 wt% once a day, 14 days.
Setting [10] is: EAI045 80 mg/kg once a day, 8 dosing modelling days, ointment 1.0 wt% once a day.
Where [11] appears, read: Cetuximab 102 mg/kg twice a week via tail vein, ointment 5.0 wt%, 10 days of drug application.

Take `CCCCC(=O)OCCN(C)C(=O)n1ccc2c(N(C)[C@H]3CN(C(=O)CC#N)CC[C@H]3C)ncnc21` [Compound A22]: the half-life at 2 µM in data set [1] amounted to 6.3 min; in data set [2], 3.1 min. The “% Retained” value in data set [1] (0 min) is reported as 100.0%; in data set [1] (10 min), 25.5%; in data set [1] (30 min) it was 1.8%; in data set [1] (60 min) it was 0.1%; in data set [1] (120 min), 0.1%; in data set [2] (0 min), 100.0%. Further, the “% Retained” value is given as 4.5% in data set [2] (10 min), 0.1% in data set [2] (30 min), 0.1% in data set [2] (60 min) and 0.0% in data set [2] (120 min). The “Control Rate” value is listed as 20% in data set [3] (Cetuximab 100 mg/kg twice a week via tail vein, ointment 0.3 wt% once a day, 10 days); 40% in data set [3] (setting [6]); 30% in data set [3] (setting [7]); 65% in data set [3] (Panitumumab 10 mg/kg twice a week via tail vein, ointment 10.0 wt% once a day, 14 days).

In the case of `C[C@@H]1CN(C(=O)CC#N)[C@@]12CCN(c1ncnc3c1ccn3C(=O)N(C)CCOC(=O)C1CC1)C2` [Compound A27], the “Control Rate” value in data set [3] (setting [8]) is given as 20%; in data set [3] (Cetuximab 100 mg/kg twice a week via tail vein, ointment 3.0 wt% once a day, 10 days) it was 40%; in data set [3] (setting [7]), 45%; in data set [3] (setting [9]), 70%; in data set [4] (setting [10]), 60%; in data set [4] (EAI045 80 mg/kg once a day, 8 dosing modelling days, ointment 3.0 wt% once a day), 80%. The “Control Rate” value is 40% in data set [4] (Osimertinib 60 mg/kg twice a day, 7 dosing modelling days, ointment 0.2 wt% once a day); 100% in data set [4] (Osimertinib 60 mg/kg twice a day, 7 dosing modelling days, ointment 4.0 wt% once a day); 30% in data set [5] (Cetuximab 102 mg/kg twice a week via tail vein, ointment 1.0 wt%, 10 days of drug application); 80% in data set [5] (setting [11]); 60% in data set [5] (Panitumumab 6 mg/kg twice a week via tail vein, ointment 0.1 wt%, 8 days of drug application); 90% in data set [5] (Panitumumab 6 mg/kg twice a week via tail vein, ointment 3.0 wt%, 8 days of drug application).

Turning to `C[C@@H]1CN(C(=O)CC#N)[C@@]12CCN(c1ncnc3c1ccn3C(=O)N(C)CCOC(=O)C1CCCCC1)C2` [Compound A28], the “Control Rate” value is 30% in data set [3] (setting [8]); 70% in data set [3] (setting [6]); 45% in data set [3] (Panitumumab 10 mg/kg twice a week via tail vein, ointment 0.2 wt% once a day, 14 days); 100% in data set [3] (setting [9]); 80% in data set [4] (BPI-7711 60 mg/kg once a day, 6 dosing modelling days, ointment 3.0 wt% once a day); 30% in data set [4] (Dacomitinib 10 mg/kg once a day, 5 dosing modelling days, ointment 0.2 wt% once a day). The “Control Rate” value in data set [4] (Dacomitinib 10 mg/kg once a day, 5 dosing modelling days, ointment 2.0 wt% once a day) turned out to be 60%; in data set [4] (Dacomitinib 10 mg/kg once a day, 5 dosing modelling days, ointment 5.0 wt% once a day) it was 80%; in data set [4] (Dacomitinib 10 mg/kg once a day, 5 dosing modelling days, ointment 10.0 wt% once a day) it was 60%; in data set [4] (setting [10]), 40%; in data set [4] (EAI045 80 mg/kg once a day, 8 dosing modelling days, ointment 10.0 wt% once a day), 100%; in data set [4] (Gefitinib 80 mg/kg twice a day, 10 dosing modelling days, ointment 1.0 wt% once a day), 30%. The “Control Rate” value in data set [4] (Gefitinib 80 mg/kg twice a day, 10 dosing modelling days, ointment 5.0 wt% once a day) was 30%; in data set [4] (Larotinib 20 mg/kg once a day, 6 dosing modelling days, ointment 3.0 wt% once a day), 40%; in data set [4] (Osimertinib 60 mg/kg twice a day, 7 dosing modelling days, ointment 0.5 wt% once a day), 20%; in data set [4] (Osimertinib 60 mg/kg twice a day, 7 dosing modelling days, ointment 5.0 wt% once a day), 60%; in data set [5] (Cetuximab 102 mg/kg twice a week via tail vein, ointment 0.3 wt%, 10 days of drug application) it was 40%; in data set [5] (setting [11]), 70%. Also, the “Control Rate” value in data set [5] (Panitumumab 6 mg/kg twice a week via tail vein, ointment 2.0 wt%, 8 days of drug application) was determined as 60%; in data set [5] (Panitumumab 6 mg/kg twice a week via tail vein, ointment 10.0 wt%, 8 days of drug application), 100%.
